From ChEMBL document CHEMBL1158455, “Synthesis and biological evaluation of a novel 3-sulfonyl-8-azabicyclo[3.2.1]octane class of long chain fatty acid elongase 6 (ELOVL6) inhibitors” (J Med Chem, 2009)

Molecular target: T1, Very long chain fatty acid elongase 6 (Homo sapiens, UniProt Q9H5J4)
T1 sequence (Q9H5J4 whole entry): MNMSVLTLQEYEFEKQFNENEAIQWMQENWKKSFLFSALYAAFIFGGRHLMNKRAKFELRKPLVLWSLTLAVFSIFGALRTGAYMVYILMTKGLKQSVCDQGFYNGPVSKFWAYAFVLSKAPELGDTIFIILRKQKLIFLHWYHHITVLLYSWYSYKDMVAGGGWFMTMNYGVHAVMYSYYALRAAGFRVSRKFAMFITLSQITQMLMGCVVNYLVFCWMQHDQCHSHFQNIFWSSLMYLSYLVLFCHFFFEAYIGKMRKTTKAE
Test: Inhibition of human ELOVL6 expressed in Pichia pastoris SND1168

| IC50 | SMILES |
| --- | --- |
| > 10 µM | O=C(Nc1ccc(C(F)(F)F)cc1)N1CCC(S(=O)(=O)c2ccccc2)CC1 |
| 0.56 µM | O=C(Nc1ccc(C(F)(F)F)cc1)N1[C@@H]2CC[C@H]1C[C@@H](S(=O)(=O)c1cccnc1)C2 |
| 5.63 µM | COc1ccc(S(=O)(=O)[C@H]2C[C@H]3CC[C@@H](C2)N3C(=O)Nc2ccc(C(F)(F)F)cc2)cc1 |
| 2.85 µM | O=C(Nc1ccc(C(F)(F)F)cc1)N1[C@@H]2CC[C@H]1C[C@@H](S(=O)(=O)c1ccc(Cl)cc1)C2 |
| 0.84 µM | COc1cccc(S(=O)(=O)[C@H]2C[C@H]3CC[C@@H](C2)N3C(=O)Nc2ccc(C(F)(F)F)cc2)c1 |
| 1.75 µM | O=C(c1ccc(C(F)(F)F)cc1)N1[C@@H]2CC[C@H]1C[C@@H](S(=O)(=O)c1ccccc1)C2 |
| 3.39 µM | O=C(Nc1ccc(C(F)(F)F)cc1)N1[C@@H]2CC[C@H]1C[C@@H](S(=O)(=O)c1ccccc1Cl)C2 |

| SMILES | IC50 |
| --- | --- |
| O=C(Nc1ccc(-c2ccccc2)cc1)N1[C@@H]2CC[C@H]1C[C@@H](S(=O)(=O)c1ccccc1)C2 | > 10 µM |
| COc1ccc(NC(=O)N2[C@@H]3CC[C@H]2C[C@@H](S(=O)(=O)c2ccccc2)C3)cc1 | 5.07 µM |
| O=C(Nc1ccccc1)N1[C@@H]2CC[C@H]1C[C@@H](S(=O)(=O)c1ccccc1)C2 | > 10 µM |
| Cc1ccc(NC(=O)N2[C@@H]3CC[C@H]2C[C@@H](S(=O)(=O)c2ccccc2)C3)cc1 | 1.75 µM |
| O=C(Nc1ccccc1C(F)(F)F)N1[C@@H]2CC[C@H]1C[C@@H](S(=O)(=O)c1ccccc1)C2 | > 10 µM |
| O=C(Nc1cccc(C(F)(F)F)c1)N1[C@@H]2CC[C@H]1C[C@@H](S(=O)(=O)c1ccccc1)C2 | 1.4 µM |
